target: T1, Recombinant human calpain I (Homo sapiens, UniProt P07384); test: Inhibition of Calpain (Succ-Leu-Tyr-MNA substrate hydrolysis); assay type: biochemical; details: 0.2 mM Succ-Leu-Tyr-MNA, pH 7.5, five to seven concentrations
T1 construct: made in house
T1 sequence (P07384 1-714): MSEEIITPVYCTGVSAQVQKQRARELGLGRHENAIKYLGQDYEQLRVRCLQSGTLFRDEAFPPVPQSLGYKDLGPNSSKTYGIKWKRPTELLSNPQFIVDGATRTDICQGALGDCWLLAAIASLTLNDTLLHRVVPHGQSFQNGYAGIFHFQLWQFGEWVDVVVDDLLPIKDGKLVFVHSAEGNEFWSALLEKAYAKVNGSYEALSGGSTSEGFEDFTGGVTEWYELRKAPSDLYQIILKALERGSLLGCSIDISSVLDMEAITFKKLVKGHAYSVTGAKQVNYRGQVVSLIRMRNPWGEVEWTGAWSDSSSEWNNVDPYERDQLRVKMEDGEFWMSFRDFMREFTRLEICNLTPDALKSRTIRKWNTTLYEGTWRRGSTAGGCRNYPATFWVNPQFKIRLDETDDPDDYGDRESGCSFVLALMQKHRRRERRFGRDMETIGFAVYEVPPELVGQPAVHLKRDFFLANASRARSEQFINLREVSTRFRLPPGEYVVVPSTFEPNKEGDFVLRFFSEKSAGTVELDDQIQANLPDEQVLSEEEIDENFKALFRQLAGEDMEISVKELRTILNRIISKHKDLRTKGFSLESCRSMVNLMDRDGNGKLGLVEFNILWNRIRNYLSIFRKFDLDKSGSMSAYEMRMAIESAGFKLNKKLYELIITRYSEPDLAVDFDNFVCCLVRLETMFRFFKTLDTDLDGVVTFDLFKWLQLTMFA
T1 sequence (P04632 1-268 partner): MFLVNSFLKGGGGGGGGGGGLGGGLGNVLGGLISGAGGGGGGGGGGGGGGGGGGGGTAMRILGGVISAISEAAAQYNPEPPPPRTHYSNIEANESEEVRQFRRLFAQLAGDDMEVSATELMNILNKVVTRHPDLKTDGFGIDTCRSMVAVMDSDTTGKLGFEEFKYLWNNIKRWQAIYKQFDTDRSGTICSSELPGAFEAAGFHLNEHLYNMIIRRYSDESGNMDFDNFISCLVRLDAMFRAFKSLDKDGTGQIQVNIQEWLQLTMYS
Procedure: To evaluate inhibitory activity, stock solutions (40 times concentrated) of each compound to be tested were prepared in 100% anhydrous DMSO and 5 μL of each inhibitor preparation were aliquoted into each of three wells of a 96-well plate. Recombinant human calpain I, prepared by the method of Meyer et al. (Biochem., J. 1996, 314: 511–519), was diluted into assay buffer (i.e., 50 mM Tris, 50 mM NaCl, 1 mM EDTA, 1 mM EGTA, and 5 mM β-mercaptoethanol, pH 7.5, including 0.2 mM Succ-Leu-Tyr-MNA), and 175 μl was aliquoted into the same wells containing the independent inhibitor stocks as well as to positive control wells containing 5 μl DMSO, but no compound. To start the reaction, 20 μl of 50 mM CaCl2 in assay buffer was added to all wells of the plate, excepting three, which were used as background signal baseline controls. Substrate hydrolysis was monitored every 5 minutes for a total of 30 minutes.
Inhibition of calpain I activity was calculated as the percent decrease in the rate of substrate hydrolysis in the presence of inhibitor relative to the rate in its absence. Comparison between the inhibited and control rates was made within the linear range for substrate hydrolysis. The IC50s of inhibitors (concentration yielding 50% inhibition) were determined from the percent decrease in rates of substrate hydrolysis in the presence of five to seven different concentrations of the test compound. The results were plotted as percent inhibition versus log inhibitor concentration, and the IC50 was calculated by fitting the data to the four-parameter logistic equation shown below using the program GraphPad Prism (GraphPad Software, Inc., San Diego, Calif.). y=d+[(a−d)/(1+(x/c)^b)]
The parameters a, b, c, and d are defined as follows: a is % inhibition in the absence of inbibitor, b is the slope, c is the IC50, and d is the % innibition at an infinite concentration of inhibitor.

First: CONC(=O)C(=O)[C@H](Cc1ccccc1)NC(=O)[C@H](CC(C)C)NC(=O)OCc1ccccc1 [Example 1, Cbz-Leu-Phe-CONHOCH3]
Second: CCONC(=O)C(=O)[C@H](Cc1ccccc1)NC(=O)[C@H](CC(C)C)NC(=O)OCc1ccccc1 [Example 2, Cbz-Leu-Phe-CONHOEt]
The IC50 of the first is 1.9-fold lower: 10 nM for the first, 19 nM for the second. The first is the more potent here.

Going from `CC(C)C[C@H](NC(=O)OCc1ccccc1)C(=O)N[C@@H](Cc1ccccc1)C(=O)C(=O)NOCc1ccccc1` [Example 3, Cbz-Leu-Phe-CONHOBn] to `CC(C)C[C@H](NC(=O)OCc1ccccc1)C(=O)N[C@@H](CC(C)C)C(=O)N[C@@H](Cc1ccccc1)C(=O)C(=O)NOCc1ccccc1` [Example 13, Cbz-Leu-Leu-Phe-CONHOBn], the IC50 rises from 6 nM to 17 nM (2.8-fold). The first is the more potent here.

First: CC(C)C[C@H](NC(=O)OCc1ccccc1)C(=O)N[C@@H](Cc1ccccc1)C(=O)C(=O)NOCc1c(F)c(F)c(F)c(F)c1F [Example 4, Cbz-Leu-Phe-CONHOCH2C6F5]
Second: CCCCONC(=O)C(=O)[C@H](Cc1ccccc1)NC(=O)[C@H](CC(C)C)NC(=O)OCc1ccccc1 [Example 14, Cbz-Leu-Phe-CONHOBu]
The IC50 of the first is 11-fold lower: 17 nM for the first, 183 nM for the second. The first is the more potent here.

`CC(C)C[C@H](NC(=O)OCc1ccccc1)C(=O)N[C@@H](Cc1ccccc1)C(=O)C(=O)NOC(C)(C)C` [Example 5, Cbz-Leu-Phe-CONHOtBu] and `CONC(=O)C(=O)[C@H](Cc1ccccc1)NC(=O)[C@H](CC(C)C)NC(=O)[C@H](CC(C)C)NC(=O)OCc1ccccc1` [Example 12, Cbz-Leu-Leu-Phe-CONHOCH3] are within 1.5-fold of each other in IC50: 26 nM for the first, 20 nM for the second.

`CC(C)C[C@H](NC(=O)OCc1ccccc1)C(=O)N[C@@H](Cc1ccccc1)C(=O)C(=O)NOC1CCC(C)CC1` (stereo partly drawn) [Example 6, Cbz-Leu-Phe-CONHO(4-methylcyclohexane)] and `CCCC[C@H](NC(=O)[C@@H](NC(=O)OCc1ccccc1)C(C)C)C(=O)C(=O)NOCc1ccccc1` [Example 11, Cbz-Val-Nle-CONHOBn] are the same in IC50: 21 nM for the first, 21 nM for the second.

Compared with `COC[C@H](NC(=O)[C@@H](COCc1ccccc1)NS(C)(=O)=O)C(=O)C(=O)NOCc1ccccc1` [Example 7, CH3SO2-D-Ser(Bn)-Ser(Me)-CONHOBn], `CCONC(=O)C(=O)[C@H](Cc1ccccc1)NC(=O)[C@@H](COCc1ccccc1)NS(C)(=O)=O` [Example 9] is 2.7-fold lower in IC50: 152 nM for the first, 56 nM for the second. The second is the more potent here.

First: CS(=O)(=O)N[C@H](COCc1ccccc1)C(=O)N[C@@H](Cc1ccccc1)C(=O)C(=O)NOCc1ccccc1 [Example 8, CH3SO2-D-Ser(Bn)-Phe-CONHOBn]
Second: CCCC[C@H](NC(=O)[C@H](Cc1ccccc1)NC(=O)c1ccccc1)C(=O)C(=O)NOCC [Example 15, PhCO-Phe-Nle-CONHOEt]
The IC50 of the first is 6.9-fold lower: 28 nM for the first, 193 nM for the second. The first is the more potent here.
